Test results: publication PMC7269146, “Jingzhaotoxin-X, a gating modifier of Kv4.2 and Kv4.3 potassium channels purified from the venom of the Chinese tarantula Chilobrachys jingzhao” (The Journal of Venomous Animals and Toxins Including …, 2020)
Where a SMILES comes first, the peptide text is derived from it. Bridges are numbered along the chain shown (N, C = ends).

Tested on: Kv1.3
Test: microelectrode voltage-clamp, Xenopus laevis oocytes, Kv1.3
Assay type: cell-based
Details: 10 μM, 300-ms depolarization to +20 mV from -90 mV, pH 7.5, 19-23°C, n = 3
Method: Briefly, plasmids were linearized, and transcription was carried out according to the standardized protocol. Afterwards, the capped cRNAs that encoded the related ion channels were prepared. To conduct transcription in vitro, firstly, NotL was utilized to linearize plasmids pCI that contained both Kv1.1 (Accession: NM_010595.3) and Kv2.1 (Accession: AF026005.1), whereas SphI was adopted to linearize plasmid PcDNA3 containing Kv1.2 (Accession: NM_012970.3) gene. […] Thereafter, the linearized plasmids were used as the templates to synthesize cRNAs in vitro using the large-scale T7 mMESSAGE mMACHINE transcription kit (Ambion, USA).
A mature female X. laevis was placed on the ice for anesthesia, and then the Xenopus laevis oocytes at stage IV-VI were extracted. Subsequently, those extracted oocytes were treated by collagenase (1 mg/mL) contained within the calcium-depleted ND96 solution (containing 96 mM NaCl, 10 mM HEPES, 1 mM MgCl2, and 2 mM KCl) for defolliculation. […]
Firstly, the effects of JZTX-X on the isoforms of potassium channels (including Kv1.1-1.3, Kv2.1, as well as Kv4.2-4.3) contained within the X. laevis oocytes were investigated through the microelectrode voltage-clamp approach. […] We also determined the effects of JZTX-X on Ito potassium channels in rat DRG neurons; those current amplitudes were inhibited by 54.4±6.8% when 500 nM JZTX-X was applied (Fig. 3K, n = 5).

`CC(C)C[C@@H]1NC(=O)[C@H](CCCCN)NC(=O)[C@H](Cc2ccc(O)cc2)NC(=O)[C@@H]2CSSC[C@@H]3NC(=O)[C@H](Cc4ccc(O)cc4)NC(=O)[C@H](Cc4ccccc4)NC(=O)CNC(=O)[C@H](C)NC(=O)[C@H](CSSC[C@H](NC(=O)[C@@H](N)CC(C)C)C(=O)N[C@@H](CO)C(=O)N[C@@H](CCCNC(=N)N)C(=O)N[C@@H](CCC(=O)O)C(=O)NCC(=O)N[C@@H](CCC(=O)O)C(=O)N[C@@H](Cc4ccccc4)C(=O)N2)NC(=O)[C@H](CSSC[C@@H](C(=O)N[C@@H](Cc2ccc(O)cc2)C(=O)N[C@@H](CCCNC(=N)N)C(=O)N[C@@H](CC(N)=O)C(=O)O)NC(=O)[C@H](Cc2c[nH]cn2)NC(=O)[C@H](CC(C)C)NC(=O)[C@H](C(C)C)NC(=O)[C@H](Cc2ccccc2)NC(=O)[C@H](C)NC(=O)[C@H](CCCCN)NC3=O)NC(=O)[C@H](CCCCN)NC(=O)[C@H](CCCNC(=N)N)NC1=O` [JZTX-X, Jingzhaotoxin-X] (H-LCSREGEFCYKLRKCCAGFYCKAFVLHCYRN-OH; disulfide 2-16, 9-21, 15-28; N-terminus assumed) was tested, and the “inhibition of Kv1.3 current” value was “less than 5%”.
